Paper PMC3185571 (Viruses, 2010)
Read-outs that look alike come from different tables or passages of the source.

Tests used:
[1] = target: neuraminidase of A/Washington/10/2008, A (H1N1) Seasonal, WT (Influenza A virus, UniProt G3LYQ1); type: biochemical
[2] = target: neuraminidase of B/Memphis/20/1996, B Seasonal, R152K (Influenza B virus, UniProt R4KWM8, R150K); type: biochemical
[3] = target: neuraminidase of A/Florida/21/2008, A (H1N1) Seasonal, H275Y (Influenza A virus, UniProt G3LYQ1, H275Y); type: biochemical
[4] = target: neuraminidase of B/Memphis/20/1996, B Seasonal, WT (Influenza B virus, UniProt C7FPS7); type: biochemical
[5] = target: neuraminidase of A/Thailand/1035/2008 (H1N1), H275Y and D151D/G (Influenza A virus, UniProt C7FPR4); type: biochemical
[6] = target: neuraminidase of A/Ontario/RV0442/2009, A(H3N2), D151V and V50M (Influenza A virus, UniProt X2GPU4, D151V/V50M); type: biochemical
[7] = target: neuraminidase of A/California/07/2009, H1N1 Pandemic, WT (Influenza A virus (A/California/07/2009(H1N1)), UniProt C7FH46); type: biochemical, 2009 pandemic H1N1 influenza virus
[8] = target: neuraminidase of seasonal influenza A(H1N1) H275Y variant virus isolates (Influenza A virus, UniProt A8C8J7, H275Y); type: biochemical
[9] = target: neuraminidase of A/Washington/01/2007, A (H3N2) Seasonal, WT (Influenza A virus, UniProt A7UPN3); assay: biochemical
[10] = target: neuraminidase of A/Texas/48/2009, H1N1 Pandemic, H275Y (Influenza A virus, UniProt C6KP13, H275Y); type: biochemical, 2009 pandemic H1N1 influenza virus
[11] = target: neuraminidase of A/Texas/12/2007, A (H3N2) Seasonal, E119V (Influenza A virus, UniProt D1FVK3, I119V); assay: biochemical
[12] = target: neuraminidase of 2009 pandemic H1N1 H275Y variant virus isolates (Influenza A virus, UniProt C3W5S3, H275Y); type: biochemical, 2009 pandemic H1N1 influenza virus
[13] = target: neuraminidase of B/Texas/38/2008, D197E (Influenza B virus, UniProt C7F996); assay: biochemical

CCC(CC)[C@H](NC(C)=O)[C@@H]1[C@H](O)[C@@H](C(=O)O)C[C@H]1N=C(N)N [Peramivir, peramivir]
Fold Difference (IC50 of mutant/IC50 of wildtype virus) [1]: 0.09±0.02 (1) | Fold Difference (IC50 of mutant/IC50 of wildtype virus) [2]: 52.80±3.51 (176) | IC50 ([2]; read-out: Mean IC50 ± SD): 52.8 nM | Fold Difference (IC50 of mutant/IC50 of wildtype virus) [3]: 11.27±1.36 (134) | IC50 ([3]; read-out: Mean IC50 ± SD): 11.3 nM | Fold Difference (IC50 of mutant/IC50 of wildtype virus) [4]: 0.31±0.06 (1) | IC50 ([5]; read-out: IC50): 295 nM | IC50 [6]: 7.48 nM | Fold Difference (IC50 of mutant/IC50 of wildtype virus) [7]: 0.06±0.02 (1) | fold, mean IC50 among H275Y variants over H275 wildtype viruses [8]: ~300 fold | IC50 ([8]; read-out: IC50 Mean (±SD)): 30.6 ± 66.1 nM | IC50 ([8]; read-out: IC50 Median): 12.9 nM | IC50 ([8]; read-out: IC50 Range): 2.46 to 511 nM | Fold Difference (IC50 of mutant/IC50 of wildtype virus) [9]: 0.12±0.02 (1) | Fold Difference (IC50 of mutant/IC50 of wildtype virus) [10]: 10.06±0.01 (164) | IC50 ([10]; read-out: Mean IC50 ± SD): 10.1 nM | Fold Difference (IC50 of mutant/IC50 of wildtype virus) [11]: 0.14±0.02 (1) | IC50 ([11]; read-out: Mean IC50 ± SD): 0.14 nM | IC50 ([12]; read-out: IC50 Mean (±SD)): 10.4 ± 1.37 nM | IC50 ([12]; read-out: IC50 Median): 10.3 nM | IC50 ([12]; read-out: IC50 Range): 8.1 to 12.9 nM

CC(=O)N[C@H]1[C@H]([C@H](O)[C@H](O)CO)OC(C(=O)O)=C[C@@H]1N=C(N)N [Zanamivir, zanamivir]
IC50 [13]: 10.3 nM | IC50 [5]: 20.6 nM | IC50 [11]: 0.51 nM
